These results are taken from patent publication US9363996B2, “Compositions and method for blocking ethylene response in field crops using 3-(cy-clopropyl-l-enyl)-propanoic salt” (Yissum Research Development Company of the Hebrew …, priority 2009, dated 2016).

One assay relates to Winter wheat. Put plainly: Field experiment in wheat: seed yield and seed weight. The conditions noted are these: for yield increase over the control, hand-separated: g/100 spikes; for seed yield increase compared to the untreated control, mechanically thresh separated: g/plot. The format is in vivo, Winter wheat (Ttriticum aestivum, var. Galil). The source says:
Plant material and experimental design—Winter wheat (Ttriticum aestivum, var. Galil) was sown in December 2008 in a medium-heavy soil in the farm of the Volcani Center, Agricultural Research Organization, Bet-Dagan, Israel. Winter rainfall between October and March was 515 mm. The crop was raised without irrigation. The plants were sprayed twice with insecticide in November with ‘Tunex’ (one L/acre) and in December with ‘Oror Turbo’ (200 g/acre). The experiment started in mid-March, 2009. Six blocks were randomly selected, and each block was further randomly divided into four treatment plots of two square meters each (FIG. 67A—right and left). Two-meter-wide strips of untreated plants served as border lines between the blocks (FIG. 67A—center). The following treatments were applied: 1. control; 2. spraying WS-CPD at the ‘Milky’ stage I (30.3.09); 3. spraying WS-CPD at the ‘Milky’ stage II (17.4.09); 4. two successive WS-CPD sprays as above (30.3.09 and 17.4.09).
Treatments—The treatment solution of WS-CPD contained 120 μg mL^−1 of WS-CPD in 10 mM K-phosphate buffer (pH 7.6) and 0.1% of ‘Kinetic’ surfactant. Spraying (about 0.8 L/two square meters) was applied with a portable sprayer (ACL 7-L, Great Brittan). The controls were sprayed with the treatment solution without WS-CPD. The spraying was aimed to cover the upper part of the plants, from the second leaf below the ‘Flag leaf’ and up, covering the whole spike.
Determination of seed development—In order to follow the dynamics of seed development from ‘Milky’ stage I to seed maturity, groups of 200 spikes were sampled from the border strips. Samples were taken on 30.3.09 (‘Milky’ stage I), 17.4.09 (‘Milky’ stage II), and 19.5.09 (seed maturity). The spikes were brought to the laboratory and dried in an oven (60° C.) until complete dryness. After drying, the seeds were separated from each spike, counted, and their weight was recorded to determine the average seed weight for each spike. The number of spikes with the same average seed weight of each treatment was expressed as percent of total spike number.
Harvesting—At the termination of the experiment (19.5.09), when the seeds reached full maturity, the spikes from all six blocks were harvested, counted, and placed on tables in the greenhouse for 12 days to reach complete dryness (FIG. 67B).
Hand seed separation—One hundred dried spikes were randomly sampled of each plot (n=6) after harvesting. The seeds of each spike were separated (FIGS. 67C and D) and counted and their weight was determined. The seed weight of each spike was divided by the number of seeds per spike to determine the average seed weight of each spike. The number of spikes of each treatment with the same average seed weight was expressed as percent of total spike number.
Mechanical thresh seed separation—The remaining dry spikes of each experimental plot were counted and mechanically thresh separated (Kurt Pelz Co., Germany) from their glumes and chafes, and their dry weight was recorded (g/plot). For comparison of the yield weight of the controls between mechanical thresh and hand separation, 200 seeds from each method were randomly sampled.
Effect of WS-CPD on Yield—This effect of WS-CPD was studied by two ways: a) calculating the yield of each experimental plot (g/plot) and; b) calculating the yield dry weight of 100 spikes randomly selected in each experimental plot (g/100 spikes).

The test system of assay [1] is young cotton leaf explants. Put plainly: Ethylene-induced petiole abscission of young cotton leaf explants. The format is in vivo, cotton (Gossyium hirsutum barbadense L.). How it is done:
(1) Abscission—This is a very sensitive model system for studying the effects of plant hormones. Ethylene induces the process of abscission, while auxin delays it. In the laboratory the experimental system is based on plant organ explants, which include the abscission zone. Abscission is induced by exposure to ethylene and at the termination of the experiment the number of abscised organs, usually either leaf blades or petioles are counted and the fraction of abscission is calculated. In the case of fruit, the decrease in fruit retention force is analyzed. In cotton, when WS-CPD (the ethylene-action antagonist herein disclosed) is tested, the whole plants or explants are pretreated by spraying with the antagonist, dissolved in a phosphate buffer solution (10-20 mM, pH 7.0) including 0.1% commercially available Kinetic™ as surfactant, and left to incubate for a predetermined time, usually between 6 and 24 h. The plants or explants are then further exposed for 24 h to ethylene gas (5 to 20 μL L^−1). The plants or explants are then ventilated and incubated for the required time under controlled conditions. At the end of the experiment the percentage of abscission is determined. (2) Chlorophyll degradation—This is a standard model for studying senescence. Plant material (whole plants, excised leaves or leaf discs) are pretreated. In cotton, tobacco and wheat, when WS-CPD is tested, the whole plants or explants are pretreated by spraying with the antagonist, dissolved in phosphate buffer solution (10-20 mM, pH 7.0) including 0.1% commercially available Kinetic™ surfactant, and left to incubate for a predetermined time, usually between 6 and 241. […] At the end of the experiment a dimethylsulfoxide (DMSO) extract of the plant tissue is prepared, and the chlorophyll content of the extract is determined by spectrophotometric analysis. […] The extent of ethylene-induced epinasty of leaves is determined by measuring the change of the angle between the petiole and the stem shoot or blade. […]

[2] abbreviates: WS-CPD 120 μg mL^−1 spray at 'Milky' stage I.
Setting [3] is: WS-CPD 120 μg mL^−1 spray at 'Milky' stage II.

Turning to `O=C([O-])CCC1=CC1.[Na+]` [WS-CPD, 3-cyclopropyl-1-enyl-propanoic sodium salt], in the assay with Winter wheat (setting [2]), the “yield increase over the control, hand-separated” value is “about 15±2.6%” and the “seed yield increase compared to the untreated control, mechanically thresh separated” value is on record as “about 5%”. Further, in the assay with Winter wheat (setting [3]), the “yield increase over the control, hand-separated” value is “about 8%” and the “seed yield increase compared to the untreated control, mechanically thresh separated” value is ~8%. Further, the “increase of seed weight” value with Winter wheat (one spray at 'Milky' stage I, hand-separated, mg/seed) is given as “about 15%”. In addition, the “distribution of seed weight at maturity versus control spikes” value with Winter wheat (sprayed at 'Milky' stage I, II or both) is listed as “always significantly heavier”. In addition, in the assay on Winter wheat (spraying twice at 'Milky' stages I+II versus one spray at stage I), the “yield, hand-separated” value was “no advantage”. Further, in the assay on Winter wheat (spraying twice at 'Milky' stages I+II versus spraying once), the “seed yield, mechanically thresh separated” value is reported as “no advantage”. Besides, the “abscission percentage of explants” value in assay [1] (WS-CPD 300 μg mL^−1) is “lower than the air control treatment”. In addition, in assay [1] (WS-CPD 10 to 30 μg mL^−1, throughout the experiment, ethylene-treated explants), the decrease of abscission entry was “about 20%”.
